{"source": "patent US7063857B1", "about": "“Use of macrolide compounds for the treatment of dry eye” (Sucampo AG, priority 1999, dated 2006)", "key": {"[1]": {"system": "person having subjective symptoms of dry eye", "test": "Instillation of FK506 eye drop in a person with subjective symptoms of dry eye", "assay_type": "in vivo, human", "conditions": "0.06% eye drop (suspension), twice a day for two weeks, one patient", "description": "Using FK506 as the active ingredient in the present invention, a 0.06% eye drop (suspension) having the following formulation was used as a test drug. A suspension having the following formulation was produced in the same manner as in EP-A-0406791 (Example 6). [table]"}, "healthy subjects": {"system": "healthy subjects", "test": "Tear film breakup time (BUT) after instillation in healthy subjects", "assay_type": "in vivo, human", "conditions": "instilled four times a day for 7 days, healthy subjects (6 per group), right eye, difference between before and 8 days after instillation", "description": "A suspension having the same formulation as in Example 1 was produced using FK506 as the active ingredient to give a 0.01% FK506 eye drop (suspension) and 0.1% FK506 eye drop (suspension) as test drugs. The base for the eye drops was used as the control drug. The above-mentioned test drugs and the control drug were instilled four times a day for 7 days to 18 healthy subjects (6 per group) at 8:00, 11:00, 14:00 and 17:00. The tear film breakup time (sec) of the right eye was measured before instillation and 8 days after instillation. The difference between before and after the instillation was calculated, and taken as the mean variation of the tear film breakup time. The tear film breakup time was measured according to the conventional method. After instillation of fluorescein, the tear film was formed on the surface of the eye by nictitation."}}}
{"compound": "C=CC[C@@H]1/C=C(\\C)C[C@H](C)C[C@H](OC)[C@H]2O[C@@](O)(C(=O)C(=O)N3CCCC[C@H]3C(=O)O[C@H](/C(C)=C/[C@@H]3CC[C@@H](O)[C@H](OC)C3)[C@H](C)[C@@H](O)CC1=O)[C@H](C)C[C@@H]2OC", "note": "[FK506, 17-allyl-1,14-dihydroxy-12-[2-(4-hydroxy-3-methoxycyclohexyl)-1-methylvinyl]-23,25-dimethoxy-13,19,21,27-tetramethyl-11,28-dioxa-4-azatricyclo-[22.3 .1.0^4,9]octacos-18-ene-2,3,10,16-tetraone]", "values": [{"measurement": "subjective symptoms of dry eye (sense of dryness, foreign body and grittiness)", "setting": "[1]", "result": "the subjective symptoms disappeared"}, {"measurement": "Mean variation of tear film breakup time", "setting": "healthy subjects; 0.01% FK506 eye drop (suspension)", "result": "+0.58 sec"}, {"measurement": "Mean variation of tear film breakup time", "setting": "healthy subjects; 0.1% FK506 eye drop (suspension)", "result": "+0.75 sec"}]}
